# Laboratory results as given in EP0172919A1, “CEPHALOSPORIN DERIVATIVES, PROCESS FOR THEIR PREPARATION, AND THEIR PHARMACEUTICAL USE” (TEIJIN LIMITED, priority 1984, dated 1985).
# Read-outs that look alike come from different tables or passages of the source.
# How the values were obtained:
# [1] = test system: Pseudomonas aeruginosa IFO3445; assay: In vitro antibacterial activity, two-fold agar-plate dilution method (MIC); type: cell-based
# Method: (§1) In vitro antibacterial activity was determined by the two-fold agar-plate dillution method.
# (§2) One loopful of an overnight culture of each test starin in Trypticase-soy broth (10^6 viable cells per mt) was streaked on heart infusion agar (Muller-Hinton Agar) containing graded concentrations of representative test compound, and the minimal inhibitory concentration (MIC) was expressed in terms of µg/ml after incubation at 37°C for 16 hours.
# (§3) In vitro antibacterial activities of other compounds of the present invention were determined in the same way as in Example 26.
# [2] = test system: Salmonera paratyphi 1015; assay: as above; type: cell-based
# Method: as §1, §2, §3
# [3] = test system: Enterobacter cloacae 963; assay: as above; type: cell-based
# Method: as §1, §2, §3
# [4] = test system: Proleus morgani IFO3848; assay: as above; type: cell-based; conditions: 37°C for 16 hours
# Method: as §1, §2, §3
# [5] = test system: Staphyrococcus Terajima; assay: as above; type: cell-based
# Method: as §1, §2, §3
# [6] = test system: Proleus vulgaria OX-19; assay: as above; type: cell-based; conditions: 37°C for 16 hours
# Method: as §1, §2, §3
# [7] = test system: Proleus vulgaris IFO 3850; assay: as above; type: cell-based
# Method: as §1, §2, §3
# [8] = test system: Serratia marcescens IAM1184; assay: as above; type: cell-based
# Method: as §1, §2, §3
# [9] = test system: Escherichia coli K-12C-600; assay: as above; type: cell-based; conditions: K12C600, 37°C for 16 hours
# Method: as §1, §2
# [10] = test system: Butilus subtilis ATCC6633; assay: as above; type: cell-based; conditions: 37°C for 16 hours
# Method: as §1, §2
# [11] = test system: Pseudomonas aeruginosa PAO1; assay: as above; type: cell-based
# Method: as §1, §2
# [12] = test system: Staphyrococcus aureus FDA209JC-1; assay: as above; type: cell-based
# Method: as §1, §2
# [13] = test system: Salmonera typhimurium IID 971; assay: as above; type: cell-based; conditions: 37°C for 16 hours
# Method: as §1, §2
# [14] = test system: Pseudomonas aeruginosa NCTC10490; assay: as above; type: cell-based
# Method: as §1, §2
# [15] = test system: Staphyrococcus pyogenes COOK; assay: as above; type: cell-based
# Method: as §1, §2
# [16] = test system: Micrococcus luteus ATCC9341; assay: as above; type: cell-based
# Method: as §1, §2
# [17] = test system: Salmonera schottmuelleri 8001; assay: as above; type: cell-based; conditions: 37°C for 16 hours
# Method: as §1, §2
# [18] = test system: Staphyrococcus aureus MS 353; assay: as above; type: cell-based
# Method: as §1, §2
# [19] = test system: E.coli 81; assay: Duration of antibiotic activity: survival of mice dosed before E.coli 81 infection; type: in vivo, ICR strain male mice
# Method: The duration of antibiotic activity of compound (100) was determined.
# Experiment was performed in ICR strain male mice (5W). The animals were used in a group of 10 per regimen. A solution of E.coli 81 was injected intrapenetreally at a dose of 5 x 10^5 cell/head. Before one or three hours, the compound (100) was injected subcutaneously at a dose of 0.5 mg/head. Survival mice were counted on day 4 after injection.
# [20] = test system: E.coli 81; assay: In vivo antibacterial activity: survival of mice infected with E.coli 81; parameters: species or system ICR strain male mice
# Method: Experiment was performed in ICR strain male mice (5W) weighing 22 to 25 g. The animals were used in a group of 10 per regimen. Test organism, E.coli 81, was cultured on Mueller-Hinton agar over night at 37°C and suspended in saline to be one minimal lethal dose (5 x 10^5 cells/head). One mililitre of the bacterial suspension was injected intrapenetoreally and, after 15 minutes, mice were treated subcutaneously with various doses of compound (100) and comparative compound B. Survival mice were counted for 4 days and final observation was carried out on day 4.
# [21] = test system: E.coli 81; assay: MIC in E.coli 81 (Table IV); type: cell-based; conditions: Escherichia coli, 81, 16 h, read-out: MIC (μg/mℓ) in E.coli 81
# Method: as §1, §2
# [22] = Pseudomonas aeruginosa IFO3445, agar dilution, 37°C for 16 hours, read-out: MIC
# [23] = Enterobacter cloacae 963, agar dilution, 37°C for 16 hours, read-out: MIC
# [24] = Staphyrococcus Terajima, agar dilution, 37°C for 16 hours, read-out: MIC
# [25] = Proleus vulgaris IFO 3850, agar dilution, 37°C for 16 hours, read-out: MIC
# [26] = Serratia marcescens, IAM1184, 16 h
# [27] = Pseudomonas aeruginosa PAO1, agar dilution, 37°C for 16 hours, read-out: MIC
# [28] = Staphyrococcus aureus FDA209JC-1, agar dilution, 37°C for 16 hours, read-out: MIC
# [29] = Pseudomonas aeruginosa NCTC10490, agar dilution, 37°C for 16 hours, read-out: MIC
# [30] = Staphyrococcus pyogenes COOK, agar dilution, 37°C for 16 hours, read-out: MIC
# [31] = Micrococcus luteus ATCC9341, agar dilution, 37°C for 16 hours, read-out: MIC
# [32] = Staphyrococcus aureus MS 353, agar dilution, 37°C for 16 hours, read-out: MIC
# [33] = Dose 0.016 mg/head subcutaneously 15 minutes after intraperitoneal E.coli 81 (5 x 10^5 cells/head)
# [34] = Dose 0.032 mg/head subcutaneously 15 minutes after intraperitoneal E.coli 81 (5 x 10^5 cells/head)
# [35] = Dose 0.063 mg/head subcutaneously 15 minutes after intraperitoneal E.coli 81 (5 x 10^5 cells/head)
# [36] = Dose 0.125 mg/head subcutaneously 15 minutes after intraperitoneal E.coli 81 (5 x 10^5 cells/head)
# [37] = Dose 0.25 mg/head subcutaneously 15 minutes after intraperitoneal E.coli 81 (5 x 10^5 cells/head)
# [38] = Dose 0.5 mg/head subcutaneously 15 minutes after intraperitoneal E.coli 81 (5 x 10^5 cells/head)
# [39] = Serratia marcescens IAM1184, agar dilution, 37°C for 16 hours, read-out: MIC
Structure (SMILES),"MIC [1, 22] [µg/mL]",MIC ([2]; 16 h) [µg/mL],"MIC [3, 23] [µg/mL]",MIC ([4]; read-out: MIC) [µg/mL],"MIC [5, 24] [µg/mL]",MIC ([6]; read-out: MIC) [µg/mL],"MIC [7, 25] [µg/mL]","MIC [8, 26] [µg/mL]",MIC [9] [µg/mL],MIC [10] [µg/mL],MIC [13] [µg/mL],MIC [17] [µg/mL],other results
"CO/N=C(\C(=O)N[C@@H]1C(=O)N2C(C(=O)[O-])=C(C[N+]34CCC(CC3)C(O)C4)CS[C@H]12)c1csc(N)n1 (stereo partly drawn) [Compound (302), (6R,7R)-7-[(Z)-2-(2-aminothiazol-4-yℓ)-2-methoxyiminoacetoamido]-3-(1-aza-3-hydro-xybicyclo[2,2,2]octane-l-io)methyl-3-cephem-4-carboxylate]",0.39,0.0125,0.025,0.0063,0.1,0.025,0.0063,0.0125,–,–,–,–,–
"CO/N=C(\C(=O)N[C@@H]1C(=O)N2C(C(=O)[O-])=C(C[N+]34CCCC3CCC4)CS[C@H]12)c1csc(N)n1 (stereo partly drawn) [Compound (100), (6R,7R)-7-[(Z)-2-(2-aminothiazol-4-yl)-2-meth-oxyiminoacetoamido]-3-(1-azabicyclo[3,3,0]octane-l-io)methyl-3-cephem-4-carboxylate]",1.56,–,0.05,–,0.39,–,–,–,0.05,0.39,0.05,< 0.0063,"MIC [11, 27]: 0.1 µg/mL; MIC [12, 28]: 0.39 µg/mL; MIC [14, 29]: 0.025 µg/mL; MIC [15, 30]: < 0.0063 µg/mL; MIC [16, 31]: < 0.0063 µg/mL; MIC [18, 32]: 0.2 µg/mL; Survival percent (%) Injection before one hour ([19]; 0.5 mg/head subcutaneously one hour before intraperitoneal E.coli 81 (5 x 10^5 cell/head), survival on day 4, mice): 100%; Survival percent (%) Injection before three hours ([19]; 0.5 mg/head subcutaneously three hours before intraperitoneal E.coli 81 (5 x 10^5 cell/head), survival on day 4, mice): 100%; duration of antibiotic activity ([19]; conclusion in words drawn from Table IV): excellent in duration of antibabiotic activity; Survivals percent (%) on day 4 [20, 33]: 40%; Survivals percent (%) on day 4 [20, 34]: 40%; Survivals percent (%) on day 4 [20, 35]: 50%; Survivals percent (%) on day 4 [20, 36]: 100%; Survivals percent (%) on day 4 [20, 37]: 100%; Survivals percent (%) on day 4 [20, 38]: 100%; MIC [21]: 0.025 µg/mL"
CC(C)(ON=C(C(=O)NC1C(=O)N2C(C(=O)[O-])=C(C[n+]3ccccc3)CSC12)c1csc(N)n1)C(=O)O (stereo not drawn) [Comparative compound A],–,–,–,–,–,–,–,–,0.2,0.78,0.39,0.025,"MIC ([11]; Pseudomonas aeruginosa, PAO1, 16 h): 0.1 µg/mL; MIC ([12]; 16 h): 1.56 µg/mL; MIC ([14]; Pseudomonas aeruginosa, NCTC10490, 16 h): 0.39 µg/mL; MIC ([15]; 16 h): 0.0063 µg/mL; MIC ([16]; Micrococcus luteus, ATCC9341, 16 h): 0.0063 µg/mL; MIC ([18]; 16 h): 1.56 µg/mL; MIC ([1]; Pseudomonas aeruginosa, IFO3445, 16 h): 1.56 µg/mL; MIC ([3]; Enterobacter cloacae, 963, 16 h): 0.2 µg/mL; MIC ([5]; 16 h): 1.56 µg/mL"
"CO/N=C(\C(=O)N[C@@H]1C(=O)N2C(C(=O)[O-])=C(C[N+]34CCC(CC3)C(=O)C4)CS[C@H]12)c1csc(N)n1 [Compound (300), (6R,7R)-7-[(Z)-2-(2-aminothiazol-4-yl)-2-methoxyiminoacetoamido]-3-(1-aza-3-carbonyl-bicyclo[2,2,2]octane-l-io)methyl-3-cephem-4-carboxylate]",0.39,0.0125,0.025,> 0.0063,0.2,0.025,–,0.0125,–,–,–,–,MIC ([7]; 16 h): 0.0125 µg/mL
"CO/N=C(\C(=O)N[C@@H]1C(=O)N2C(C(=O)[O-])=C(C[N+]34CCCC3CCC4C)CS[C@H]12)c1csc(N)n1 (stereo partly drawn) [Compound (106), (6R,7R)-7-[(Z)-2-(2-aminothiazol-4-yℓ)-2-methoxyiminoacetoamido]-3-(l-aza-8-methl-bicyclo[3,3,0]octane-l-io)methyl-3-cephem-4-carboxylate]",–,–,–,–,–,–,–,–,–,–,–,–,"MIC ([1]; Pseudomonas aeruginosa IFO3445, agar dilution, 37°C for 16 hours): 0.78 µg/mL; MIC ([2]; Salmonera paratyphi 1015, agar dilution, 37°C for 16 hours): 0.025 µg/mL; MIC ([3]; Enterobacter cloacae 963, agar dilution, 37°C for 16 hours): 0.2 µg/mL; MIC [4]: 0.025 µg/mL; MIC ([5]; Staphyrococcus Terajima, agar dilution, 37°C for 16 hours): 0.2 µg/mL; MIC [6]: 0.025 µg/mL; MIC ([7]; Proleus vulgaris IFO 3850, agar dilution, 37°C for 16 hours): 0.0125 µg/mL; MIC ([8]; Serratia marcescens IAM1184, agar dilution, 37°C for 16 hours): 0.05 µg/mL"
"CO/N=C(\C(=O)N[C@@H]1C(=O)N2C(C(=O)[O-])=C(C[N+]34CCCCC3CCCC4)CS[C@H]12)c1csc(N)n1 (stereo partly drawn) [Compound (104), (6R,7R)-[(Z)-2-(2-aminothiazol-4-yl)-2-methoxyiminoacetoamido]-3-(1-azabicyclo [4,4,0]decane-1-io) methyl-3-cephem-4-carboxylate]",1.56,0.025,0.1,0.0125,0.39,0.025,0.0125,–,–,–,–,–,"MIC [8, 39]: 0.025 µg/mL"
CON=C(C(=O)NC1C(=O)N2C(C(=O)O)=C(CSc3nnnn3C)CSC12)c1csc(N)n1 (stereo not drawn) [Comparative compound B],12.5,–,0.2,–,0.78,–,–,–,0.05,0.78,0.39,0.0063,"MIC [11, 27]: 12.5 µg/mL; MIC [12, 28]: 3.12 µg/mL; MIC [14, 29]: 0.39 µg/mL; MIC [15, 30]: 0.025 µg/mL; MIC [16, 31]: 0.39 µg/mL; MIC [18, 32]: 0.2 µg/mL; Survivals percent (%) on day 4 [20, 33]: 0%; Survivals percent (%) on day 4 [20, 34]: 20%; Survivals percent (%) on day 4 [20, 35]: 30%; Survivals percent (%) on day 4 [20, 36]: 40%; Survivals percent (%) on day 4 [20, 37]: 40%; Survivals percent (%) on day 4 [20, 38]: 40%"
"CC(C)(O/N=C(\C(=O)N[C@@H]1C(=O)N2C(C(=O)[O-])=C(C[N+]34CCCC3CCC4)CS[C@H]12)c1csc(N)n1)C(=O)O (stereo partly drawn) [Compound (116), (6R,7R)-7-[(Z)-2-(2-aminothiazol-4-yl)-2-(2-carboxypropyl-2-yloxyimino)acetoamido]-3-(1-azabicyclo[3,3,0]octane-l-io)methyl-3-cephem-4-carboxylate]",0.2,0.0125,0.05,0.0063,0.78,–,0.0063,0.0125,–,–,–,–,–
"CO/N=C(\C(=O)N[C@@H]1C(=O)N2C(C(=O)[O-])=C(C[N+]34CCC(CC3)C4)CS[C@H]12)c1csc(N)n1 [Compound (200), (6R,7R)-7-[(Z)-2-(2-aminothiazol-4-yℓ)-2-methoxyiminoacetoamido]-3-(1-azabicyclo[2,2,1]heptane-l-io)methyl-3-cephem-4-carboxylate]",1.56,0.025,0.05,0.0063,0.2,0.05,0.0125,–,–,–,–,–,"MIC [8, 39]: 0.025 µg/mL"
